Reference: the supplement of paper PMC10307832

How the values were obtained:
Assay in all cases: relative viability (nuclei count vs DMSO), 5 days (fraction); higher = more cells survive
[1] = compound: CC1=NN=C(O1)C2=NN=C(C=C2)N3CCC(CC3)OC4=C(C=CC(=C4)F)Cl + COc1cc2c(Oc3ccc(NC(=O)C4(C(=O)Nc5ccc(F)cc5)CC4)cc3F)ccnc2cc1OCCCN1CCOCC1 [Foretinib] (partner 0.25 µM)
In short: (§1)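 Nuclei were stained with Hoechst during a one-step fixation (final 0.05% Triton X-100, 1% formaldehyde, 1 ug/ml Hoechst) carried out 5 days after dosing, then counted on 4× images. The cells, lung cancer lines in 1536-well plates, had been dosed by pin tool the day after seeding with one drug alone or a fixed anchor-drug dose plus five library-drug doses (not always all listed) in √10 steps. Relative viability is the nuclei count in treated wells divided by that in vehicle wells, and each value is the median of duplicate plates.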

Tosedostat + Dasatinib = compound: CC(C)C[C@@H](C(=O)N[C@H](C(=O)OC1CCCC1)c1ccccc1)[C@H](O)C(=O)NO [Tosedostat] + Cc1nc(Nc2ncc(C(=O)Nc3c(C)cccc3Cl)s2)cc(N2CCN(CCO)CC2)n1 [Dasatinib] (partner 0.075 µM)
In short: as §1

Tosedostat + Alpelisib = compound: CC(C)C[C@@H](C(=O)N[C@H](C(=O)OC1CCCC1)c1ccccc1)[C@H](O)C(=O)NO [Tosedostat] + Cc1nc(NC(=O)N2CCC[C@H]2C(N)=O)sc1-c1ccnc(C(C)(C)C(F)(F)F)c1 [Alpelisib] (partner 2 µM)
In short: as §1

[2] = compound: CC1=NN=C(O1)C2=NN=C(C=C2)N3CCC(CC3)OC4=C(C=CC(=C4)F)Cl + C[C@@H](Oc1cc(-c2cnn(C3CCNCC3)c2)cnc1N)c1c(Cl)ccc(F)c1Cl [Crizotinib] (partner 1 µM)
In short: as §1

Cell Line | relative viability ([1]; first compound 0.253 µM) | relative viability ([1]; first compound 0.8 µM) | relative viability ([1]; first compound 2.53 µM) | relative viability ([1]; first compound 8 µM) | relative viability (Tosedostat + Dasatinib; first compound 0.02 µM) | relative viability (Tosedostat + Dasatinib; first compound 0.06325 µM) | relative viability (Tosedostat + Dasatinib; first compound 0.2 µM) | relative viability (Tosedostat + Dasatinib; first compound 0.6325 µM) | relative viability (Tosedostat + Dasatinib; first compound 2 µM) | relative viability (Tosedostat + Alpelisib; first compound 0.02 µM) | relative viability (Tosedostat + Alpelisib; first compound 0.06325 µM) | relative viability (Tosedostat + Alpelisib; first compound 0.2 µM) | relative viability (Tosedostat + Alpelisib; first compound 0.6325 µM) | relative viability (Tosedostat + Alpelisib; first compound 2 µM) | relative viability ([2]; first compound 0.253 µM) | relative viability ([2]; first compound 0.8 µM) | relative viability ([2]; first compound 2.53 µM) | relative viability ([2]; first compound 8 µM)
NCI-H322M | 0.937 | 0.908 | 1.03 | 0.95 | 0.272 | 0.256 | 0.268 | 0.279 | 0.246 | 0.726 | 0.902 | 0.537 | 0.755 | 0.53 | 0.762 | 0.792 | 0.899 | 0.886
NCI-H358 | 0.512 | 0.393 | 0.512 | 0.41 | 0.169 | 0.183 | 0.208 | 0.211 | 0.208 | 0.881 | 0.824 | 0.688 | 0.538 | 0.442 | 0.522 | 0.403 | 0.509 | 0.466
NCI-H441 | 0.658 | 0.78 | 0.686 | 0.605 | 0.702 | 0.61 | 0.583 | 0.445 | 0.539 | 0.749 | 0.582 | 0.597 | 0.501 | 0.534 | 0.615 | 0.428 | 0.541 | 0.36
NCI-H460 | 0.282 | 0.299 | 0.273 | 0.243 | 0.601 | 0.644 | 0.57 | 0.459 | 0.498 | 0.535 | 0.472 | 0.619 | 0.689 | 0.796 | 0.359 | 0.301 | 0.311 | 0.296
NCI-H520 | 0.653 | – | 0.757 | 0.77 | 0.146 | 0.202 | – | 0.243 | 0.28 | 0.805 | 0.807 | 0.929 | 1.12 | 0.946 | 0.692 | 0.707 | 0.694 | 0.632
NCI-H596 | 0.71 | 0.751 | 0.837 | 0.682 | 0.648 | 0.623 | 0.614 | 0.656 | 0.619 | 0.48 | 0.51 | 0.483 | 0.619 | 0.552 | – | 0.95 | 0.963 | 0.795
NCI-H647 | 0.565 | 0.623 | 0.586 | 0.426 | 0.212 | 0.211 | 0.218 | 0.197 | 0.151 | 1.3 | 1.13 | 1.02 | 1.09 | 1.14 | 0.664 | 0.691 | 0.726 | 0.528
NCI-H650 | 1.01 | 0.959 | 0.911 | 1.06 | 0.471 | 0.49 | 0.424 | 0.422 | 0.388 | 1 | 1.15 | 1.14 | 0.97 | 0.683 | 0.691 | 0.692 | 0.64 | 0.818
NCI-H661 | 0.912 | 0.845 | 0.837 | 0.731 | 1.02 | 0.834 | 0.846 | 0.815 | 0.695 | 0.736 | 0.627 | 0.428 | 0.594 | 0.531 | 0.609 | 0.661 | 0.711 | 0.747
NCI-H727 | 0.786 | 0.822 | 0.838 | 0.828 | 0.404 | 0.339 | – | 0.311 | 0.29 | 0.665 | 0.569 | 0.472 | 0.41 | 0.364 | 0.725 | 0.901 | 0.672 | 0.683
NCI-H838 | 0.887 | 0.83 | 0.868 | 0.88 | 0.317 | 0.342 | 0.299 | 0.329 | 0.27 | 1.03 | 0.903 | 1 | 1.04 | 1.17 | 0.643 | 0.679 | 0.731 | 0.683
NCI-H1355 | 0.723 | 0.802 | 0.895 | 0.845 | 0.758 | 0.681 | 0.728 | 0.592 | 0.57 | 0.704 | 0.798 | 0.854 | 0.667 | 0.688 | – | – | 0.985 | 0.959
NCI-H1437 | 0.724 | 0.805 | 0.729 | 0.512 | 0.488 | 0.46 | 0.415 | 0.323 | 0.327 | 0.984 | 1.05 | 0.969 | 0.828 | 0.506 | 0.605 | 0.506 | 0.55 | 0.535
NCI-H1563 | 0.925 | 0.866 | 0.931 | 0.951 | 0.507 | 0.528 | 0.459 | 0.512 | 0.442 | 0.879 | 1 | 0.956 | 1.16 | 1.1 | 0.861 | 0.858 | 0.837 | 0.868
NCI-H1651 | 0.819 | 0.619 | 0.689 | 0.848 | 0.566 | 0.384 | 0.411 | 0.399 | 0.338 | 0.832 | 0.92 | 0.996 | 0.995 | 0.924 | 0.753 | 0.659 | 0.656 | 0.669
NCI-H1666 | 0.496 | 0.47 | 0.459 | 0.412 | 0.771 | 0.871 | 0.854 | 0.848 | 0.874 | 0.99 | 0.841 | 1.06 | 0.995 | 0.951 | 0.612 | 0.621 | 0.636 | 0.629
NCI-H1734 | 0.861 | 0.857 | 0.769 | 0.699 | 0.523 | 0.477 | 0.436 | 0.466 | 0.446 | 0.672 | 0.647 | 0.742 | 0.593 | 0.646 | 0.652 | 0.688 | 0.62 | 0.626
NCI-H1755 | 0.641 | 0.719 | 0.731 | 0.647 | 0.436 | 0.403 | 0.444 | 0.42 | 0.361 | 0.941 | 0.9 | 0.922 | 0.864 | 0.883 | 0.578 | 0.576 | 0.619 | 0.512
NCI-H1915 | 0.685 | 0.532 | 0.531 | 0.402 | 0.321 | 0.348 | 0.306 | 0.277 | 0.215 | 1.1 | 1.05 | 1.04 | 1.07 | 0.907 | 0.445 | 0.312 | 0.311 | 0.253
NCI-H1944 | 0.464 | 0.463 | 0.473 | 0.498 | 0.226 | 0.211 | 0.215 | 0.208 | 0.194 | 0.929 | 0.811 | 0.817 | 0.742 | 0.818 | 0.448 | 0.54 | 0.566 | 0.529
NCI-H1975 | – | 0.929 | 0.834 | 0.757 | 0.369 | 0.358 | 0.35 | 0.268 | 0.34 | 0.658 | 0.602 | 0.537 | 0.473 | 0.495 | – | 0.918 | 0.782 | 0.777
NCI-H1993 | 0.664 | 0.682 | 0.709 | 0.7 | 0.471 | 0.561 | 0.502 | 0.519 | 0.505 | 0.61 | 0.688 | 0.843 | 0.561 | 0.588 | 0.779 | 0.806 | 0.794 | 0.993
NCI-H2009 | 0.711 | 0.667 | 0.644 | 0.636 | 0.279 | 0.334 | 0.226 | 0.267 | 0.24 | 1.24 | 1.14 | 1.12 | 1.05 | 0.955 | 0.565 | 0.529 | 0.547 | 0.465
NCI-H2023 | 0.594 | 0.613 | 0.64 | 0.619 | 0.585 | 0.571 | 0.552 | 0.518 | 0.505 | 0.571 | 0.558 | 0.675 | 0.421 | 0.483 | 0.453 | 0.493 | 0.455 | 0.441
NCI-H2085 | 0.808 | – | 0.744 | 0.698 | 0.205 | 0.234 | 0.256 | 0.276 | 0.307 | 0.904 | 1.02 | 1.06 | 0.936 | 0.887 | 0.76 | 0.656 | 0.821 | 0.683
NCI-H2087 | 0.593 | 0.641 | 0.626 | 0.489 | 1.17 | 0.936 | 0.908 | 0.688 | 0.869 | 1.21 | 1.08 | 1.21 | 0.876 | 0.91 | 0.652 | 0.598 | 0.544 | 0.486
NCI-H2126 | 0.982 | 0.932 | 0.958 | 0.985 | 0.611 | 0.662 | 0.636 | 0.63 | 0.558 | 0.664 | 0.744 | 0.757 | 0.774 | 0.661 | 0.921 | 0.858 | 0.891 | 0.841
NCI-H2170 | 0.466 | 0.575 | 0.583 | 0.432 | 0.575 | 0.514 | 0.558 | 0.63 | 0.451 | 0.742 | 0.829 | 0.835 | 0.777 | 0.862 | 0.553 | 0.573 | 0.638 | 0.449
NCI-H2228 | 0.723 | 0.66 | 0.845 | 0.632 | 0.51 | 0.497 | 0.494 | 0.344 | 0.338 | 0.971 | 0.748 | 0.743 | 0.677 | 0.661 | 0.357 | 0.408 | 0.533 | 0.42
NCI-H2347 | 0.904 | 0.931 | 0.707 | 0.824 | 0.269 | 0.353 | 0.291 | 0.311 | 0.26 | 1.14 | 0.971 | 1.01 | 1.02 | 1.03 | 0.734 | 0.522 | 0.646 | 0.607
